The target of one experiment is T1, TLR8 (Homo sapiens, UniProt Q9NR97).
T1 construct: host or cells: HEK-Blue hTLR8 (HEK293-derived SEAP reporter cells)
T1 sequence (Q9NR97 27-1041): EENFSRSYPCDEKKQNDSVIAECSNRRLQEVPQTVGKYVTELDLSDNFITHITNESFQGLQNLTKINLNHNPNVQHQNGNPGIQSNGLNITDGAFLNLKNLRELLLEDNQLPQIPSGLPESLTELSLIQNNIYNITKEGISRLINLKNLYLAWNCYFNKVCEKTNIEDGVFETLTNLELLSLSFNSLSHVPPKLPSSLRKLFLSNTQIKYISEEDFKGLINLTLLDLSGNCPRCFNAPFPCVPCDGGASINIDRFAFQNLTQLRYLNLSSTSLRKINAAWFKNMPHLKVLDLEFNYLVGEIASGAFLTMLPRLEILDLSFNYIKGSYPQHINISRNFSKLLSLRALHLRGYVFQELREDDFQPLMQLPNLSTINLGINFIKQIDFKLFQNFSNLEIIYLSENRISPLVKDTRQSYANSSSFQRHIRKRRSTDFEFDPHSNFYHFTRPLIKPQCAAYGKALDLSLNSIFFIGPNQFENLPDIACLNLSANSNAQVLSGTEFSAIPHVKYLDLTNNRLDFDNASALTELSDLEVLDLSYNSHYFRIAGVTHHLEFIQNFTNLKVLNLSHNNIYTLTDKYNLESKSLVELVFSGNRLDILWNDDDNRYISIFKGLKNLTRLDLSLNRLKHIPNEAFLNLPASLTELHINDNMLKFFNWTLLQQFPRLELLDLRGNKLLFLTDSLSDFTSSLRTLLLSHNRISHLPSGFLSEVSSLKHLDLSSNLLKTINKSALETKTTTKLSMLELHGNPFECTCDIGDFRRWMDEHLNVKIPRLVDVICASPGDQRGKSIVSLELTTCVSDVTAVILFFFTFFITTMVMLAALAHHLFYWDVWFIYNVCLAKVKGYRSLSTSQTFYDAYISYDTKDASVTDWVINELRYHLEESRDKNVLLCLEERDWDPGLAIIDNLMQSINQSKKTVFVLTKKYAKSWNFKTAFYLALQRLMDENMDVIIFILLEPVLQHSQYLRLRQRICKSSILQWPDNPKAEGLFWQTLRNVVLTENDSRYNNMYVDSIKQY
In words: Inhibition of R848-induced signaling in HEK-Blue hTLR8 cell line (Quanti-Blue). The format is cell-based. To be noted: HEK-Blue hTLR8 cell line; normalized, ligand+DMSO = 100% activity, untreated = 0%. How it is done:
(§1) HEK Blue hTLR8 cells or HEK Blue hTLR7 cells were cultured in DMEM medium supplemented with 10% fetal bovine serum, penicillin (100 U/mL) and streptomycin ([…]). Thereafter, cells were seeded in 96-well plate (45,000 cells per well), and were cultured for 24 hours in a humidified incubator (37° C., 5% CO2).
After 24 hours, the supernatant and suspending cells were aspirated and replaced with fresh serum-free DMEM.
(§2) After 24 hours, 50 μL of the medium was aspirated from each well and then added to a new 96-well plate, followed by the addition of 50 μL of Quanti-Blue in each well and the incubation at 37° C. in darkness. Changes in color would occur in the […] within 60 minutes, and the absorbance was measured at 620 nm by using the multi-mode plate reader Vrioskan Flash. Inhibition rate (%)=[R848 (OD620)−Compound (OD620)]/[R848 (OD620)−Control (OD620)]×100%. Among these, the control group was only added with the same amount of cells. Finally, the software Prism 6.0 was utilized to plot a graph and calculate IC50 values. Or, the activity of the cells treated with ligand and DMSO was defined as 100% activity, and the activity of the untreated cells was defined as 0% activity.
For the molecule `CC(C)Cn1cnc(I)c1-c1ccccc1` [Compound 59, 4-iodo-1-(2-methylpropyl)-5-phenyl-1H-imidazole], the “Remaining R848-induced TLR8 signaling (normalized activity; ligand+DMSO = 1, untreated = 0)” value is 0.2 ± 0.1. As to `CCOCc1nc(C(C)(C)O)c(-c2ccccc2)n1CC(C)(C)O` [Compound 47, 1-[2-(ethoxymethyl)-4-(2-hydroxypropan-2-yl)-5-phenyl-1H-imidazole-1-yl]-2-methylpropan-2-ol], the “Remaining R848-induced TLR8 signaling (normalized activity; ligand+DMSO = 1, untreated = 0)” value is recorded as 0.9 ± 0.1. Take `CCOCc1nc(-c2ccccc2)c(-c2ccccc2)n1CC(C)(C)O` [Compound 49, 1-[2-(ethoxymethyl)-4,5-diphenyl-1H-imidazole-1-yl]-2-methylpropan-2-ol]: the “Remaining R848-induced TLR8 signaling (normalized activity; ligand+DMSO = 1, untreated = 0)” value worked out at 0.6 ± 0.0.

Staying with this experiment, now noted: R848-induced signaling, HEK-Blue hTLR8 cell line; value ± standard deviation, at least triplicate.
In the case of `CSc1nnc(CCCO)n1-c1cccc(Cl)c1` [Compound 18, 3-(4-(3-chlorophenyl)-5-(methylthio)-4H-1,2,4-triazole-3-yl)propan-1-ol], half-maximal inhibition (IC50) required 350 ± 20 nM. `Fc1cccc(-n2cnnc2SCc2c(Cl)cccc2Cl)c1` [Compound 1, 3-((2,6-dichlorobenyl)thio)-4-(3-fluorophenyl)-4H-1,2,4-triazole]: half-maximal inhibition (IC50) required 1950 ± 190 nM.

`CSc1nnc(CCCO)n1-c1ccc2ncccc2c1` [Compound 37, 3-(5-(methylthio)-4-(quinolin-6-yl)-4H-1,2,4-triazole-3-yl)propan-1-ol] yielded an IC50 of 650 ± 10 nM. Same read-out and setting: in the case of `CSc1nnc(CCCO)n1-c1ccc(Cl)c(Cl)c1Cl` [Compound 22, 3-(5-(methylthio)-4-(2,3,4-trichlorophenyl)-4H-1,2,4-triazole-3-yl)propan-1-ol] it was 600 ± 100 nM.

Take `CSc1nnc(CCCO)n1-c1ccc(C(F)(F)F)cc1` [Compound 26, 3-(5-(methylthio)-4-(4-(trifluoromethyl)phenyl)-4H-1,2,4-triazole-3-yl)propan-1-ol]: the IC50 amounted to 4840 ± 820 nM.

In turn, `CSc1nnc(CCO)n1-c1ccc(Cl)cc1Cl` [Compound 4, 2-(4-(2,4-dichlorophenyl)-5-(methylthio)-4H-1,2,4-triazole-3-yl)ethan-1-ol] had an IC50 of 590 ± 30 nM.

For `CSc1nnc(CCCO)n1-c1cc(Cl)c(Cl)c(Cl)c1` [Compound 23, 3-(5-(methylthio)-4-(3,4,5-trichlorophenyl)-4H-1,2,4-triazole-3-yl)propan-1-ol], the IC50 is 110 ± 10 nM. Still for that read-out and setting: in the case of `CSc1nnc(CCCO)n1-c1ccc(Cl)c(Cl)c1` [Compound 19, 3-(4-(3,4-dichlorophenyl)-5-(methylthio)-4H-1,2,4-triazole-3-yl)propan-1-ol] it was 190 ± 10 nM; in that of `CSc1nnc(CCCO)n1-c1c(Cl)cc(Cl)cc1Cl` [Compound 21, 3-(5-(methylthio)-4-(2,4,6-trichlorophenyl)-4H-1,2,4-triazole-3-yl)propan-1-ol], 2810 ± 440 nM. With `Cc1nnc(SCc2c(Cl)cccc2Cl)n1-c1cccc(F)c1` [Compound 2, 3-((2,6-dichlorobenzyl)thio)-4-(3-fluorophenyl)-5-methyl-4H-1,2,4-triazole], the IC50 was 6180 ± 290 nM.

As for `CSc1nnc(CCCO)n1-c1cccc(Cl)c1Cl` [Compound 20, 3-(4-(2,3-dichlorophenyl)-5-(methylthio)-4H-1,2,4-triazole-3-yl)propan-1-ol], the IC50 came out at 800 ± 70 nM.

Molecule `CSc1nnc(CCCO)n1-c1ccc(F)cc1F` [Compound 15, 3-(4-(2,4-difluorophenyl)-5-(methylthio)-4H-1,2,4-triazole-3-yl)propan-1-ol] displayed an IC50 of 2130 ± 560 nM.

The molecule `OCCCc1nnc(SCC2CC2)n1-c1ccc(Cl)cc1Cl` [Compound 13, 3-(5-((cyclopropylmethyl)thio)-4-(2,4-dichlorophenyl)-4H-1,2,4-triazole-3-yl)propan-1-ol] displayed an IC50 of 8010 ± 130 nM. For the molecule `CCCc1nnc(SC)n1-c1ccc(Cl)cc1Cl` [Compound 7, 4-(2,4-dichlorophenyl)-3-(methylthio)-5-propyl-4H-1,2,4-triazole], 630 ± 20 nM corresponded to half-maximal inhibition (IC50). Regarding `OCCCc1nnc(SCc2c(Cl)cccc2Cl)n1-c1ccc(F)cc1F` [Compound 33, 3-(5-((2,6-dichlorobenzyl)thio)-4-(2,4-difluorophenyl)-4H-1,2,4-triazole-3-yl)propan-1-ol], the IC50 was 8440 ± 780 nM. The same measure, in the same setting: in the case of `OCCCCc1nnc(SCc2c(Cl)cccc2Cl)n1-c1ccc(F)cc1F` [Compound 34, 4-(5-((2,6-dichlorobenzyl)thio)-4-(2,4-difluorophenyl)-4H-1,2,4-triazole-3-yl)butan-1-ol] it was 11400 ± 700 nM; in that of `CC(C)Sc1nnc(CCCO)n1-c1ccc(Cl)cc1Cl` [Compound 12, 3-(4-(2,4-dichlorophenyl)-5-(isopropylthio)-4H-1,2,4-triazole-3-yl)propan-1-ol], 10100 ± 800 nM; in that of `CCSc1nnc(CCCO)n1-c1ccc(Cl)cc1Cl` [Compound 11, 3-(4-(2,4-dichlorophenyl)-5-(ethylthio)-4H-1,2,4-triazole-3-yl)propan-1-ol], 390 ± 40 nM.

As to `CSc1nnc(CCCO)n1-c1ccccc1Cl` [Compound 17, 3-(4-(2-chlorophenyl)-5-(methylthio)-4H-1,2,4-triazole-3-yl)propan-1-ol], the IC50 is 980 nM.

As to `COc1ccc(-n2c(CCCO)nnc2SC)cc1` [Compound 25, 3-(4-(4-methoxyphenyl)-5-(methylthio)-4H-1,2,4-triazole-3-yl)propan-1-ol], the IC50 amounted to 3860 ± 310 nM. Same read-out and setting: in the case of `CSc1nnc(CCCO)n1-c1cnc2ccccc2c1` [Compound 36, 3-(5-(methylthio)-4-(quinolin-3-yl)-4H-1,2,4-triazole-3-yl)propan-1-ol] it was 740 nM.

The target of the next experiment is T2, TLR7 (Homo sapiens, UniProt Q9NYK1).
T2 construct: host or cells: HEK-Blue hTLR7 (HEK293-derived SEAP reporter cells)
T2 sequence (Q9NYK1 27-1049): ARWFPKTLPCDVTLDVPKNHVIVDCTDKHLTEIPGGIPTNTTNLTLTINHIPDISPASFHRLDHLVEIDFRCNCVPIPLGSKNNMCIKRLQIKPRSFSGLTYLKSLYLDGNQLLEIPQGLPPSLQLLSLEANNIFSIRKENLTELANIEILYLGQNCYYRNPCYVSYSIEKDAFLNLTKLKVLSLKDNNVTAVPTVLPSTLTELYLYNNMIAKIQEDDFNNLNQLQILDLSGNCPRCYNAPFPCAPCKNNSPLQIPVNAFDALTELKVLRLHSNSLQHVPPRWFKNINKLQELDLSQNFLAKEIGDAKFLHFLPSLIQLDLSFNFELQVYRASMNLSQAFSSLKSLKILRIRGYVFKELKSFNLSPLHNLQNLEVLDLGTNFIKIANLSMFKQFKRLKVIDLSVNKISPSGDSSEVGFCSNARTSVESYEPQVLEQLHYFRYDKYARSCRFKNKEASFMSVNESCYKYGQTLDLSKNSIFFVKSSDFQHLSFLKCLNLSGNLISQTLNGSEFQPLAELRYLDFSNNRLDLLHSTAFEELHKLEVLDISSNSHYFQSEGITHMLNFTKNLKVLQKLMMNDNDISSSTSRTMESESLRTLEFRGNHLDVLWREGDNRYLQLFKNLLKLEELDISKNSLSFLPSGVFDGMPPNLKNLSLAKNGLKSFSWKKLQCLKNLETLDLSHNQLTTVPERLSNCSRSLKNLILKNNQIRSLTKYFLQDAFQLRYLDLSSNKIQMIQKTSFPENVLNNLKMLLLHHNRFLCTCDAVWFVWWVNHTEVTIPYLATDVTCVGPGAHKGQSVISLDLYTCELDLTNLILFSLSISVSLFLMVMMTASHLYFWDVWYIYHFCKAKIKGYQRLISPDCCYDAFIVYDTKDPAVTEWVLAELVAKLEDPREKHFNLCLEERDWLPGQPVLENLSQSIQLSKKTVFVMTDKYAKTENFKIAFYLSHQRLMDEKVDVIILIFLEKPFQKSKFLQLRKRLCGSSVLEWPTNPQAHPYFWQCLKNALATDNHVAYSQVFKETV
In words: Inhibition of R848-induced signaling in HEK-Blue hTLR7 cell line (Quanti-Blue). The format is cell-based.
Conditions: not given
How it is done: as §1
After 24 hours, the supernatant and suspending cells were aspirated and replaced with fresh serum-free DMEM. Cells were treated with 1 μg/mL of R848 (agonist of TLR7/8) or 5 μg/mL of ssRNA40/LyoVec or 5 μg/mL of ORN06/LyoVec (InvivoGen) and compounds with specified concentrations, and were placed in a humidified incubator (37° C., 5% CO2) for co-culture.
as §2
Take `CC(C)Cn1cnc(I)c1-c1ccccc1` [Compound 59, 4-iodo-1-(2-methylpropyl)-5-phenyl-1H-imidazole]: the “TLR7 (normalized inhibitory effect on R848-induced signaling)” value worked out at 0.2 ± 0.1. The same measure, in the same setting: under `CCOCc1nc(C(C)(C)O)c(-c2ccccc2)n1CC(C)(C)O` [Compound 47, 1-[2-(ethoxymethyl)-4-(2-hydroxypropan-2-yl)-5-phenyl-1H-imidazole-1-yl]-2-methylpropan-2-ol] stands 0.8 ± 0.0; under `CCOCc1nc(-c2ccccc2)c(-c2ccccc2)n1CC(C)(C)O` [Compound 49, 1-[2-(ethoxymethyl)-4,5-diphenyl-1H-imidazole-1-yl]-2-methylpropan-2-ol], 0.8 ± 0.0.

A word on the IC50: it is the concentration needed to halve the response being measured. Lower therefore signals greater potency in that assay.

(Values after US20230002327A1, “SMALL-MOLECULE REGULATOR OF TLR8” (TSINGHUA UNIVERSITY, priority 2019, published 2023).)
